The values that follow are results of earlier work, collected in patent US6559138B1, “3-Desoxy-vitamin D3 analog esters” (Syntex (U.S.A.) LLC, priority 2001, dated 2003).

The structures appear in SMILES notation.

For data set [1], the system named is women with postmenopausal osteoporosis.
For data set [2], the system named is steroid-induced bone loss. Conditions: calcitriol 0.5 to 1.0 micrograms/day plus calcium 1000 mg/day, with or without intranasal calcitonin 400 IU/day.

Take `C=C1/C(=C\C=C2/CCC[C@]3(C)[C@@H]([C@H](C)CCCC(C)(C)O)CC[C@@H]23)C[C@@H](O)C[C@@H]1O` [calcitriol, 1,25-dihydroxyvitamin D3]: in data set [1] (at recommended dosages), the hypercalcaemia entry was “infrequent and mild”. The “lower rate of new vertebral fractures compared with patients receiving elemental calcium 1000 mg/day” value in data set [1] (calcitriol 0.25 microgram twice daily, after 3 years of treatment, patients with mild to moderate disease) is on record as 3 fold. The tolerability entry in data set [1] (overall) was “well tolerated”. In data set [2], the “effect on steroid-induced bone loss” value is given as “prevented steroid-induced bone loss”.
